Each structure is given as a SMILES string.

This is an account of results in patent US20210040061A1, “COMPOUND, POLYMER, AND ORGANIC MATERIAL” (Sony Corporation, priority 2018, published 2021).

The conditions of data set [1]: background statement; cited from earlier work.
Data set [2] can be described thus: Refractive index measurement (Abbe's refractometer, acetone solutions, analytical curve extrapolated). Conditions: light of 589 nm, 25±1° C., extrapolated to volume fraction 1. Format: physicochemical. The method, then: A refractive index measuring method will be described below.
Average refractive indices of the respective compounds to light of 589 nm at room temperature 25±1° C. were measured by an Abbe's refractometer (ER-1, produced by Erma, Inc.) and were plotted against volume fraction of each compound, to form analytical curves (the densities of the compounds were all 1.00 g/cm^3). The analytical curves were extrapolated, and the refractive index when the volume fraction of each compound is 1 was made to be a refractive index of each compound.

Data set [3] in a line: Transparency evaluation of resin compatible film with polyvinyl acetate (visual inspection). Details: key: Good: Transparency is good.; Poor: Coloration is present. It is filed as physicochemical. The conditions noted are these: for Transparency: 3 μm film, 10 mg compound + 10 mg polyvinyl acetate, visual inspection; for evaluation of transparency: resin compatible film with PVAc. An excerpt: Several drops of each of these resin compositions were dropped onto a 2 cm square glass substrate, a film was formed by a spin coater, and acetone as a solvent was evaporated off, to form a resin compatible film (3 μm thick) of each compound. These films were confirmed to be transparent by visual inspection and were subjected to evaluation of transparency.
The criterion of transparency evaluation is as follows.
Good . . . Transparency is good.
Poor . . . Coloration is present.

The nature of data set [4]: Solubility measurement in acetone. Conditions: ultrasonic stirring, visual.
Description: When there was an undissolved portion of the compound, a small amount of acetone was added thereto, and then stirring was further conducted for 30 seconds. The above-mentioned work was repeated, and upon dissolution of the whole of the compound, the solubility was calculated from the total amount of the solvent used.
Data set [5] in a line: Limit value (saturation amount) of dissolution of monomer in solvent of hologram recording photosensitive composition. Format: physicochemical. Conditions: hologram recording photosensitive composition with 8 g of acetone as solvent. The method, then:
In Comparative Example 5, Hologram Recording Photosensitive Composition 50 was prepared by the same method as in Example 7 by using the same materials in the same amounts as in Example 7, except that 0.88 g of Compound 40-1 (the compound of Comparative Example 1) was used as a monofunctional photopolymerizable monomer. […] Note that the amount (0.88 g) in which Compound 40-1 was used is a limit value (saturation amount) of dissolution of the compound in a solvent.
In Comparative Example 6, Hologram Recording Photosensitive Composition 60 was prepared by the same method as in Example 7 by using the same materials in the same amounts as in Example 7, except that 1 g of Compound 40-2 (the compound of Comparative Example 2) was used as a monofunctional photopolymerizable monomer. […] Note that the amount (1 g) in which Compound 40-2 was used is a limit value (saturation amount) of dissolution of the compound in a solvent.
In Comparative Example 7, Hologram Recording Photosensitive Composition 70 was prepared by the same method as in Example 7 by using the same materials in the same amounts as in Example 7, except that 0.1 g of Compound 40-3 (the compound of Comparative Example 3) was used as a monofunctional photopolymerizable monomer. […] Note that the amount (0.1 g) in which Compound 40-3 was used is a limit value (saturation amount) of dissolution of the compound in a solvent.

Consider `c1ccc2c(c1)ccc1c2sc2ccc3ccccc3c21` [dinaphthothiophene], for which, in data set [1], the refractive index is 1.8.
Take `C=C(C)C(=O)Oc1cc2ccccc2cc1CCc1cc2ccccc2c2c1sc1ccc3ccccc3c12` [Example 15]: the “Refractive index (589 nm)” value in data set [2] is 1.81. In addition, the Transparency entry in data set [3] is “Good”. The Solubility/wt % in data set [4] is given as greater than 20 wt %.
As for `c1ccc2c(c1)ccc1sc3ccc4ccccc4c3c12` [Comparative Example 4, reference compound], the “Refractive index (589 nm)” value in data set [2] was 1.81. In addition, the Transparency result in data set [3] was “Good”.
Regarding `C=C(C)C(=O)OCc1cc2ccccc2c2c1sc1ccc3ccccc3c12` [Comparative Example 1, reference compound], the “Refractive index (589 nm)” value in data set [2] is on record as 1.73. Also, in data set [5], the “limit value (saturation amount) of dissolution of the compound in a solvent” value (“limit value (saturation amount)” below) came out at 0.88 g. The Transparency result in data set [3] was “Good”. This compound also displayed a Solubility/wt % in data set [4] of less than 10 wt %.
For `C=C(C)C(=O)Oc1ccccc1CCc1cc2ccccc2c2c1sc1ccc3ccccc3c12` [Example 1], the “Refractive index (589 nm)” value in data set [2] was 1.8. In data set [3], the Transparency result is reported as “Good”. In data set [4], this compound came in with a Solubility/wt % greater than 20 wt %.
Turning to `C=Cc1cc2ccccc2c2c1sc1ccc3ccccc3c12` [Comparative Example 3, reference compound], the “Refractive index (589 nm)” value in data set [2] is listed as 1.8. In data set [5], the “limit value (saturation amount)” value worked out at 0.1 g. Further, in data set [3], the Transparency result is “Poor” and the evaluation of transparency entry is recorded as “Poor”. The compound further showed a Solubility/wt % in data set [4] of less than 1.5 wt %.
For the compound `C=CC(=O)Oc1cccc(OC(=O)C=C)c1CCc1cc2ccccc2c2c1sc1ccc3ccccc3c12` [Example 14], the “Refractive index (589 nm)” value in data set [2] is 1.72. Also, the Transparency result in data set [3] is on record as “Good”. This compound also came in with a Solubility/wt % in data set [4] greater than 20 wt %.
Consider `C=C(C)C(=O)Oc1cccc(CCc2cc3ccccc3c3c2sc2ccc4ccccc4c23)c1` [Example 2], for which the “Refractive index (589 nm)” value in data set [2] was 1.8. For the same compound, the Transparency entry in data set [3] is given as “Good”. For the same compound, the Solubility/wt % in data set [4] is greater than 20 wt %.
With `C=C(C)C(=O)Oc1ccc(CCc2cc3ccccc3c3c2sc2ccc4ccccc4c23)cc1` [Example 3], the “Refractive index (589 nm)” value in data set [2] is 1.8. For the same compound, the Transparency entry in data set [3] is listed as “Good”. The compound also came in with a Solubility/wt % in data set [4] greater than 20 wt %.
`C=C(C)C(=O)Oc1ccccc1CCc1cc2ccccc2c2c1sc1ccc3ccccc3c12` [Example 5]: the “Refractive index (589 nm)” value in data set [2] was 1.7. In data set [3], the Transparency result is “Good”. In addition, the Solubility/wt % in data set [4] was greater than 20 wt %.
As to `C=C(C)C(=O)Oc1cccc(OC(=O)C(=C)C)c1CCc1cc2ccccc2c2c1sc1ccc3ccccc3c12` [Example 13], the “Refractive index (589 nm)” value in data set [2] is reported as 1.73. Besides, the Transparency result in data set [3] was “Good”. The Solubility/wt % in data set [4] is greater than 20 wt %.
As to `C=C(C)C(=O)OC(C)c1cc2ccccc2c2c1sc1ccc3ccccc3c12` (centres unmarked) [Comparative Example 2, reference compound], in data set [2], the “Refractive index (589 nm)” value is on record as 1.71. For the same compound, in data set [5], the “limit value (saturation amount)” value was 1 g. In data set [3], the Transparency entry is “Poor” and the evaluation of transparency result was “Poor”. Moreover, in data set [4], the Solubility/wt % is less than 11 wt %.
For the compound `C=C(C)C(=O)Oc1ccc2ccccc2c1CCc1cc2ccccc2c2c1sc1ccc3ccccc3c12` [Example 6], in data set [2], the “Refractive index (589 nm)” value is reported as 1.81. The Transparency result in data set [3] is “Good”. In data set [4], the Solubility/wt % is given as greater than 20 wt %.
With `C=C(CCCCCCCCCC)C(=O)Oc1ccccc1CCc1cc2ccccc2c2c1sc1ccc3ccccc3c12` [Example 4], the “Refractive index (589 nm)” value in data set [2] is reported as 1.7. In addition, the Transparency result in data set [3] is on record as “Good”. The Solubility/wt % in data set [4] is greater than 20 wt %.

As usually defined, the refractive index is a measure of how strongly the sample bends light.
